Data set [1] concerns H3K27Me3 in DMS114 tumors. The data set is described as follows: H3K27Me3 ELISA on histones of DMS114 xenograft tumors. Format: in vivo, female NOD/SCID mice. Particulars: Mus musculus, DMS-114, 1320 h; 300 mg/kg BID, tumors harvested at Day 55; read-out: maximum inhibition of H3K27Me3 in tumor samples. On the procedure:
(§1) Extracts were aliquoted and stored at −20° C. (short term) or −80° C. (long term). […] Data was analyzed using GraphPad Prism version 7.02.
(§2) The in vivo activity of Compound 1 against EZH2 in the DMS114 SCLC xenograft model was determined by measurement of the relative amount of cellular H3K27Me3 and Me2 levels with ELISA using the tumor tissue samples harvested at Day 55 from the study described in Example 3 above.
(In general: In an ELISA, binding on a coated surface is turned into a signal by an enzyme label.)

The subject of data set [2] is H3K27Me2 in DMS114 tumors. The data set is described as follows: H3K27Me2 ELISA on histones of DMS114 xenograft tumors. It is filed as in vivo, female NOD/SCID mice. The settings on record: Mus musculus, DMS-114, 1320 h; 300 mg/kg BID, tumors harvested at Day 55; read-out: maximum inhibition of H3K27Me2 in tumor samples. The method, then:
as §1, §2

The subject of data set [3] is DMS114 SCLC xenograft. From the text: • (i) Compound Formulation: Compound 1 was formulated as a wet-milled nanosuspension (24 hr milling in 2.5% w/v polyvinyl pyrrolidone (PVP), 0.5% w/v Macrogol 15 Hydroxystearate (Kolliphor HS15) aqueous, with <1 μm particle-size distribution (PSD; ˜650 nm median diameter (d50)) for oral gavage administration. • (ii) Cell Implant, Compound Dosing and Tissue Collection: Immune deficient female mice with a severe combined immunodeficiency (SCID) mutation in a non-obese diabetic background (NOD SCID; 6 to 8 week old; NOD.CB17-Prkdcscid/NCrCrl from Charles River Laboratories) received a subcutaneous (SC) implant of 7.5×10^6 DMS114 cells (in 1:1 matrigel (Trevigen, Cultrex BME Path Clear®, Lot #: 30625F14), total volume 200 μl) into the right flank. Tumor volume and body weight were measured twice a week. On Day 20 post implant, 64 mice were randomized, based on tumor size at a geometric mean (geomean) of about 160 mm^3, into 6 groups corresponding to dose (Table 1). Compounds were administered at 10 ml/kg by oral gavage (Compound 1; BID ( 7/17 hours apart)) or intraperitoneal injection (cisplatin), respectively. The cisplatin dosing schedule was once a week for 3 weeks (Q7Dx3) and started 7 days after the randomization and treatment initiation with Compound 1.
On Day 55, study groups 1, 2, 3 and 4 were terminated (Table 1). Tumor (snap frozen) samples were collected at 4 hours post last dose for pharmacodynamic (PD) analysis. […] Tumor samples from groups 5 and 6 were collected 3 hours post last dose depending on available tumor sizes. All procedures performed on these animals were in accordance with regulations and established guidelines and were reviewed and approved by Pfizer's Institutional Animal Care and Use Committee. • (iii) Data Interpretation: For each experiment, calculations were performed and graphs created in Microsoft Excel and GraphPad Prism version 7.02 respectively. The tumor volume was calculated as 0.5×length×width^2. Tumor growth inhibition (TGI) was determined by the formula: % TGI=[1−(Vtx−Vt0/Vcx−Vc0)]×100, where Vc, Vt are the geometric means of control and treated groups. X=day X on study and 0=initial day of dosing. ELISA Assay: • (i) Histone Extraction: Histone extraction was performed using the EpiQuick Histone Extraction Kit (Epigentek OP0006). Frozen tumor samples were cut and homogenized using cold mortar and pestle on dry-ice. The homogenized mixture was transferred to a 1.5 mL tube in 1× Pre-Lysis Buffer (200 mg/mL) containing phenylmethylsulfonyl fluoride (PMSF). Samples were gently mixed, incubated on ice for 15 minutes, and spun down at 3,000 rpm for 5 minutes at 4° C. The tissue pellet was resuspended in 3 volumes (approximately 200 μL per 100 mg of tissue) of lysis buffer from the Histone Extraction Kit, incubated on ice for 30 minutes, and spun down at 12,000 rpm for 5 minutes at 4° C. Balance-DTT buffer was prepared by adding DTT Solution to balance buffer at a 1:500 ratio. The supernatant (containing acid soluble proteins) was transferred to a new 1.5 mL tube and 0.3 volumes of Balance-dithiothreitol (DTT) buffer from the Histone Extraction Kit were immediately added to each sample. The tumor lysate was briefly sonicated for 4 cycles (30 seconds on and 30 seconds off) at high intensity using the Bioruptor Plus (Diagenode #601020001). Extracts were aliquoted and stored at −20° C. (short term) or −80° C. (long term). Protein concentration was quantified using the Coomassie Plus (Bradford) Assay Kit (Thermo #23236). • (ii) H3K27Me3 and Me2 ELISA Assay: Histone extracts were diluted to a final concentration of 400 ng (or 800 ng) in 100 μL of coating buffer (phosphate buffered saline (PBS) containing 0.05% bovine serum albumin (BSA)).

Entries after “also recorded” stand apart in the source; their conditions may differ.

By inhibition is commonly meant the relative decrease from the control value, in per cent. For `COc1cc(C)[nH]c(=O)c1CN1CCc2c(Cl)cc([C@H](OC)C3COC3)c(Cl)c2C1=O` [Compound 1, 5,8-dichloro-2-[(4-methoxy-6-methyl-2-oxo-1,2-dihydro-pyridin-3-yl)methyl]-7-[(R)-methoxy(oxetan-3-yl)methyl]-3,4-dihydroisoquinolin-1(2H)-one], the inhibition at 300 mg/kg in data set [1] turned out to be 96%; in data set [2], 82%. In data set [3] (Compound 1 100 mg/kg BID PO, cisplatin 4 mg/kg IP Q7Dx3, alone or combined), the “TGI by Day 55” value worked out at 50%. Also, the “anti-tumor benefit vs vehicle control group” value in data set [3] (Compound 1 100 mg/kg BID and 300 mg/kg BID, Day 55) is “significant anti-tumor benefit”. Further, the “tolerability / body weight loss” value in data set [3] (Compound 1 PO BID, cisplatin 4 mg/kg IP Q7Dx3, combination with Compound 1 100 mg/kg BID) was “well tolerated with limited bodyweight loss; also recorded: minimal toxicity”. Besides, the complete tumor regressions entry in data set [3] (Compound 1 monotherapy arms, 30, 100 and 300 mg/kg BID) is listed as “No complete tumor regressions”. Further, the “tumors regressed or progressed compared to the starting tumor burden” value in data set [3] (Day 55, Compound 1 100 mg/kg BID, cisplatin 4 mg/kg Q7Dx3) is “all tumors had progressed”. The “survival benefit, Log-rank test (Mantel-Cox)” value in data set [3] (survival cut-off at 500 mm^3 tumor burden) was “did not reach the P<0.05 significance level”. In addition, the median survival in data set [3] (survival cut-off at 500 mm^3 tumor burden, Compound 1 100 mg/kg BID, cisplatin 4 mg/kg Q7Dx3) is given as 39 days.
